This is an account of results in US20160287589A1, “SUBSTITUTED-IMIDAZOPYRIDAZINES” (BAYER PHARMA AKTIENGESELLSCHAFT, priority 2013, published 2016).

In test [1] the target is T1, MKNK1 (Homo sapiens, UniProt Q9BUB5, T385D).
T1 construct: GST (N); purchased Carna Biosciences 02-145; host or cells: insect cells (baculovirus expression system)
The experiment in a line: MKNK1 kinase assay (MKNK1 TR-FRET assay). In kind it is biochemical. The following applies: 10 μM ATP, 15 min preincubation. Background: In TR-FRET formats the signal depends on donor and acceptor labels being close together.

In test [2] the target is T1, MKNK1. The experiment in a line: MKNK1 kinase high ATP assay (TR-FRET-based). Type of test: biochemical. The following applies: 2 mM ATP, 15 min preincubation. Summed up: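 GST-tagged full-length human MKNK1 (aa 1-424, T344D) from insect cells, preincubated with compound 15 min at 22 °C. Reaction 30 min at 22 °C with 2 mM ATP and 0.06 μM biotinylated peptide in HEPES pH 7.5, Mg2+, DTT. Phosphopeptide detected by TR-FRET (665/622 ratio) with anti-pS6 (pSer236) antibody; normalised to no-inhibitor and no-enzyme controls.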

T1 sequence (Q9BUB5 1-424 isoform Q9BUB5-2 T344D): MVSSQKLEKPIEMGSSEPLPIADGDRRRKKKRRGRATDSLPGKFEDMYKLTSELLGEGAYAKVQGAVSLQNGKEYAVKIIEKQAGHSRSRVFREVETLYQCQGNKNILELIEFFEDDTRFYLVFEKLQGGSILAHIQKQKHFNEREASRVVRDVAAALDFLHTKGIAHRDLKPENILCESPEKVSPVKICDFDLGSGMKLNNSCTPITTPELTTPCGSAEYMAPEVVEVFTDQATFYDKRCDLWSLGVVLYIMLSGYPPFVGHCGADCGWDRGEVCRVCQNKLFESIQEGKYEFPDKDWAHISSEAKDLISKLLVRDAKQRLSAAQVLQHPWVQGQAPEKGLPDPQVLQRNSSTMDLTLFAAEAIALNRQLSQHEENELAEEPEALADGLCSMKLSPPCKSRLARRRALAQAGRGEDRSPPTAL

With `CCN(CCOC)c1nccc2oc(-c3cnc4ccc(OC[C@@H]5CCCN5)nn34)cc12` [III-139, N-ethyl-N-(2-methoxyethyl)-2-{6-[(2S)-pyrrolidin-2-ylmeth-oxy]imidazo[1,2-b]pyridazin-3-yl}furo[3,2-c]pyridin-4-amine], the values for the IC50 on MKNK1 [1] (Table 1c) and against MKNK1 [2] (Table 2c) were 3 nM and 1.7 nM, respectively.
The corresponding values for `CC1(C)CN(c2nccc3oc(-c4cnc5ccc(OCCCS(C)(=O)=O)nn45)cc23)CCO1` [III-135, 3-[4-(2,2-dimethylmorpholin-4-yl)furo[3,2-c]pyridin-2-yl]-6-[3-(methylsulfonyl)propoxy] imidazo[1,2-b]pyridazine] are 30.1 nM and 12.9 nM.
Consider `N[C@H]1C[C@H](Oc2ccc3ncc(-c4cc5c(N6CCNCC6)nccc5o4)n3n2)C1` [III-103, trans-3-({3-[4-(Piperazin-1-yl)furo[3,2-c]pyridin-2-yl]imidazo[1,2-b]pyridazin-6-yl}oxy)cyclobutanamine], for which the IC50 came out at 9.1 nM on MKNK1 [1] (Table 1c) and 18.6 nM at MKNK1 [2] (Table 2c).
Regarding `COc1nccc2oc(-c3cnc4ccc(OC[C@H]5CN(C(=O)C(F)(F)F)CCO5)nn34)cc12` [IV-10, 2,2,2-Trifluoro-1-[(2R)-2-({[3-(4-methoxyfuro[3,2-c]pyridin-2-yl)imidazo-[1,2-b]pyridazin-6-yl]oxy}methyl)morpholin-4-yl]ethanone], the IC50 stood at 7 nM on MKNK1 [1] (Table 1d) and 17 nM on MKNK1 [2] (Table 2d).
In the same order, the values of `CC(C)Oc1nccc2oc(-c3cnc4ccc(OC[C@H]5CNCC(=O)N5)nn34)cc12` [IV-13, (6R)-6-[({3-[4-(Propan-2-yloxy)furo[3,2-c]pyridin-2-yl]imidazo[1,2-b]pyridazin-6-yl}oxy)methyl]piperazin-2-one] are 22 nM and 43 nM.
`CCNc1nccc2oc(-c3cnc4ccc(OC[C@H]5CCC(=O)N5)nn34)cc12` [IV-14, (5R)-5-[({3-[4-(Ethylamino)furo[3,2-c]pyridin-2-yl]imidazo[1,2-b]pyridazin-6-yl}oxy)methyl]pyrrolidin-2-one]: the figures for the half-maximal inhibitory concentration (IC50) against MKNK1 [1] (Table 1d) and against MKNK1 [2] (Table 2d) were 1 nM and 2 nM, respectively.
In the case of `CCC(=O)N1CCC[C@H]1CCOc1ccc2ncc(-c3cc4ccccc4o3)n2n1` [Example I-44, 1-[(2S)-2-(2-{[3-(1-Benzofuran-2-yl)imidazo[1,2-b]-pyridazin-6-yl]oxy}ethyl)pyrrolidin-1-yl]propan-1-one], the values for the IC50 against MKNK1 [1] (Table 1a) and against MKNK1 [2] (Table 2a) were 1.1 nM and 1.7 nM, respectively.
In the case of `COc1nccc2oc(-c3cnc4ccc(OC[C@H]5CN(C(=O)C(C)(C)C)CCO5)nn34)cc12` [IV-11, 1-[(2R)-2-({[3-(4-Methoxyfuro[3,2-c]pyridin-2-yl)imidazo[1,2-b]pyridazin-6-yl]oxy}-methyl)morpholin-4-yl]-2,2-dimethylpropan-1-one], the IC50 against MKNK1 [1] (Table 1d) was found to be 6 nM; against MKNK1 [2] (Table 2d), 25 nM.
For `COC[C@H]1CCCN1c1cccc2oc(-c3cnc4ccc(OC[C@H](C)N)nn34)cc12` [II-8, (2S)-1-[(3-{4-[(2R)-2-(Methoxymethyl)pyrrolidin-1-yl]-1-benzofuran-2-yl}-imidazo[1,2-b]pyridazin-6-yl)oxy]propan-2-amine], the IC50 is 2 nM on MKNK1 [1] (Table 1b) and 2.7 nM against MKNK1 [2] (Table 2b).
For `CS(=O)(=O)CCCOc1ccc2ncc(-c3cc4c(N5CCCC5)nccc4o3)n2n1` [III-44, 6-[3-(Methylsulfonyl)propoxy]-3-[4-(pyrrolidin-1-yl)furo[3,2-c]pyridin-2-yl]imidazo[1,2-b]pyridazine], the IC50 worked out at 5.5 nM against MKNK1 [1] (Table 1c) and 14.9 nM at MKNK1 [2] (Table 2c).
The corresponding values for `CN(C)[C@@H]1CCN(c2nccc3oc(-c4cnc5ccc(OCCCS(C)(=O)=O)nn45)cc23)C1` [III-46, (3R)—N,N-Dimethyl-1-(2-{6-[3-(methylsulfonyl)propoxy]imidazo[1,2-b]pyridazin-3-yl}furo[3,2-c]pyridin-4-yl)pyrrolidin-3-amine] are 3.9 nM and 3.6 nM.
Regarding `COc1nccc2oc(-c3cnc4ccc(OC[C@H]5CCC(=O)N5)nn34)cc12` [IV-6, (5R)-5-({[3-(4-Methoxyfuro[3,2-c]pyridin-2-yl)imidazo[1,2-b]pyridazin-6-yl]-oxy}methyl)pyrrolidin-2-one], the IC50 is 4 nM against MKNK1 [1] (Table 1d) and 8 nM on MKNK1 [2] (Table 2d).
On to `COC[C@H]1CCCN1c1cccc2oc(-c3cnc4ccc(OC[C@H]5CNCCO5)nn34)cc12` [II-7, 3-{4-[(2R)-2-(Methoxymethyl)pyrrolidin-1-yl]-1-benzofuran-2-yl}-6-[(2R)-morpholin-2-ylmethoxy]imidazo[1,2-b]pyridazine], for which the IC50 amounted to 6.3 nM against MKNK1 [1] (Table 1b) and 4.2 nM at MKNK1 [2] (Table 2b).
The corresponding values for `O=C1CC[C@H](COc2ccc3ncc(-c4cc5c(N6CCN(c7ccccc7)CC6)cccc5o4)n3n2)N1` [II-14, (5R)-5-[({3-[4-(4-Phenylpiperazin-1-yl)-1-benzofuran-2-yl]imidazo[1,2-b]-pyridazin-6-yl}oxy)methyl]pyrrolidin-2-one] are 7 nM and 27 nM.
In the same order, the values of `CS(=O)(=O)CCCOc1ccc2ncc(-c3cc4c(N5CCN(c6ccccc6)CC5)cccc4o3)n2n1` [II-12, 6-[3-(Methylsulfonyl)propoxy]-3-[4-(4-phenylpiperazin-1-yl)-1-benzofuran-2-yl]-imidazo[1,2-b]pyridazine] are 24 nM and 67 nM.
As to `COC[C@H]1CCCN1c1cccc2oc(-c3cnc4ccc(OC)nn34)cc12` [II-10, 6-Methoxy-3-{4-[(2R)-2-(methoxymethyl)pyrrolidin-1-yl]-1-benzofuran-2-yl}-imidazo[1,2-b]pyridazine], the concentration for half-maximal inhibition (IC50) stood at 6.5 nM at MKNK1 [1] (Table 1b) and 5 nM against MKNK1 [2] (Table 2b).
Turning to `O=C(C1CCCC1)N1CCC[C@H]1CCOc1ccc2ncc(-c3cc4ccccc4o3)n2n1` [Example I-56, [(2S)-2-(2-{[3-(1-Benzofuran-2-yl)imidazo[1,2-b]-pyridazin-6-yl]oxy}ethyl)pyrrolidin-1-yl](cyclopentyl)-methanone], the IC50 was determined as 4 nM against MKNK1 [1] (Table 1a) and 3.8 nM at MKNK1 [2] (Table 2a).
In the case of `O=C(N[C@H]1C[C@H](Oc2ccc3ncc(-c4cc5ccccc5o4)n3n2)C1)C1CC1` [Example I-5, N-(trans-3-{[3-(1-Benzofuran-2-yl)imidazo[1,2-b]pyridazin-6-yl]oxy}cyclobutyl)-cyclopropanecarboxamide], the IC50 on MKNK1 [1] (Table 1a) turned out to be 5.3 nM; against MKNK1 [2] (Table 2a), 8.9 nM.
Consider `CN(C)[C@@H]1CCN(c2nccc3oc(-c4cnc5ccc(OC[C@H]6CCC(=O)N6)nn45)cc23)C1` [III-64, (5R)-5-{[(3-{4-[(3R)-3-(Dimethylamino)pyrrolidin-1-yl]furo[3,2-c]pyridin-2-yl}imidazo[1,2-b]pyridazin-6-yl)oxy]methyl}pyrrolidin-2-one], for which the IC50 was 0.4 nM at MKNK1 [1] (Table 1c) and 0.1 nM against MKNK1 [2] (Table 2c).
Turning to `C[C@@H]1CNCCN1c1cccc2oc(-c3cnc4ccc(OCCCS(C)(=O)=O)nn34)cc12` [II-45, 3-{4-[(2R)-2-methylpiperazin-1-yl]-1-benzofuran-2-yl}-6-[3-(methylsulfonyl)pro-poxy]imidazo[1,2-b]pyri-dazine], the values for the IC50 at MKNK1 [1] (Table 1b) and on MKNK1 [2] (Table 2b) were 5.7 nM and 5.9 nM, respectively.
Regarding `CC(C)(C)OC(=O)N[C@H]1C[C@H](Oc2ccc3ncc(-c4cc5c(N6CCOCC6)cccc5o4)n3n2)C1` [II-3, tert-Butyl [trans-3-({3-[4-(morpholin-4-yl)-1-benzofuran-2-yl]imidazo[1,2-b]-pyridazin-6-yl}oxy)cyclobutyl]carbamate], the half-maximal inhibitory concentration (IC50) is 110 nM against MKNK1 [1] (Table 1b) and 196 nM against MKNK1 [2] (Table 2b).
As to `CC(C)(C)C(=O)N1CCC[C@H]1CCOc1ccc2ncc(-c3cc4ccccc4o3)n2n1` [Example I-46, 1-[(2S)-2-(2-{[3-(1-Benzofuran-2-yl)imidazo[1,2-b]-pyridazin-6-yl]oxy}ethyl)pyrrolidin-1-yl]-2,2-dimethylpropan-1-one], the results for the IC50 at MKNK1 [1] (Table 1a) and against MKNK1 [2] (Table 2a) were 1.2 nM and 1.9 nM, respectively.
Consider `C[C@H]1CN(c2nccc3oc(-c4cnc5ccc(OCC(F)(F)F)nn45)cc23)CCN1` [III-145, 3-{4-[(3S)-3-methylpiperazin-1-yl]furo[3,2-c]pyridin-2-yl}-6-(2,2,2-trifluoroethox-y)imidazo[1,2-b]pyridazine], for which the values for the IC50 at MKNK1 [1] (Table 1c) and at MKNK1 [2] (Table 2c) were 9.7 nM and 24 nM, respectively.
The corresponding values for `CCN(CCOC)c1nccc2oc(-c3cnc4ccc(OC[C@@H]5CCC(=O)N5)nn34)cc12` [III-86, (S)-5-{[(3-{4-[Ethyl(2-methoxyethyl)amino]furo[3,2-c]pyridin-2-yl}imidazo[1,2-b]pyridazin-6-yl)oxy]methyl}pyrrolidin-2-one] are 0.7 nM and 0.5 nM.
In the case of `CC1(C)CN(c2cccc3oc(-c4cnc5ccc(OC[C@@H]6CCC(=O)N6)nn45)cc23)CCN1` [II-36, (5S)-5-[({3-[4-(3,3-dimethylpiperazin-1-yl)-1-benzofuran-2-yl]imidazo[1,2-b]pyridazin-6-yl}oxy)methyl]pyrrolidin-2-one], the results for the 50% inhibitory concentration (IC50) against MKNK1 [1] (Table 1b) and on MKNK1 [2] (Table 2b) were 2.3 nM and 1 nM, respectively.
Regarding `CCN(CCOC)c1nccc2oc(-c3cnc4ccc(OCC5CCCCN5)nn34)cc12` (stereo not drawn) [III-41, N-Ethyl-N-(2-methoxyethyl)-2-[6-(piperidin-2-ylmethoxy)imidazo[1,2-b]pyridazin-3-yl]furo[3,2-c]pyridin-4-amine], the IC50 at MKNK1 [1] (Table 1c) worked out at 12 nM; against MKNK1 [2] (Table 2c), 17.6 nM.
In the same order, the values of `CCN(CCOC)c1nccc2oc(-c3cnc4ccc(OC[C@@H]5CNCC(=O)N5)nn34)cc12` [III-113, (6S)-6-{[(3-{4-[Ethyl(2-methoxyethyl)amino]furo[3,2-c]pyridin-2-yl}imidazo[1,2-b]pyridazin-6-yl)oxy]methyl}piperazin-2-one] are 0.5 nM and 0.3 nM.

A word on the IC50: it is the concentration that inhibits the measured activity by half. The low end stands for higher potency, the high end for lower potency.
